Assay results: PubChem BioAssay (NCI)
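These data come from cells grown in 96-well plates and exposed to compound for 48 hours at five concentrations. TGI marks complete inhibition of growth.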

Columns and labels:
Test in all cases: NCI tumour cell line growth inhibition, 48 h
[1] = tested on: RXF 393 renal
[2] = tested on: UACC-62 melanoma
[3] = tested on: KM20L2 colon
[4] = tested on: SK-MEL-28 melanoma
[5] = tested on: SR leukemia
[6] = tested on: U251 CNS
[7] = tested on: SNB-78 CNS
[8] = tested on: M14 melanoma
[9] = tested on: ACHN renal
[10] = tested on: HOP-92 NSCLC
[11] = tested on: NCI-H23 lung
[12] = tested on: OVCAR-4 ovarian
[13] = tested on: HCC-2998 colon
[14] = tested on: LXFL 529 NSCLC
[15] = tested on: DMS 273 small cell lung
[16] = tested on: HT29 colon
[17] = tested on: CAKI-1 renal
[18] = tested on: 786-0 renal
[19] = tested on: A498 renal
[20] = tested on: SNB-19 CNS
[21] = tested on: K-562 leukemia
[22] = tested on: MOLT-4 leukemia
[23] = tested on: SNB-75 CNS
[24] = tested on: SW-620 colon
[25] = tested on: HOP-18 NSCLC
[26] = tested on: HL-60(TB) leukemia
[27] = tested on: HOP-62 NSCLC
[28] = tested on: EKVX NSCLC
[29] = tested on: NCI-H226 lung
[30] = tested on: HCT-116 colon
[31] = tested on: SF-295 CNS
[32] = tested on: UO-31 renal
[33] = tested on: TK-10 renal
[34] = tested on: SN12C renal
[35] = tested on: SF-268 CNS
[36] = tested on: IGROV1 ovarian
[37] = tested on: OVCAR-5 ovarian
[38] = tested on: RPMI-8226 leukemia
[39] = tested on: NCI-H522 lung
[40] = tested on: HCT-15 colon
[41] = tested on: SK-MEL-2 melanoma
[42] = tested on: LOX IMVI melanoma
[43] = tested on: SK-OV-3 ovarian
[44] = tested on: OVCAR-8 ovarian
[45] = tested on: DMS 114 small cell lung
[46] = tested on: DLD-1 colon
[47] = tested on: COLO 205 colon
[48] = tested on: SF-539 CNS
[49] = tested on: RXF-631 renal
[50] = tested on: CCRF-CEM leukemia
[51] = tested on: A549 NSCLC
[52] = tested on: KM12 colon
[53] = tested on: M19-MEL melanoma
[54] = tested on: MALME-3M melanoma
[55] = tested on: NCI-H460 lung
[56] = tested on: OVCAR-3 ovarian
[57] = tested on: SK-MEL-5 melanoma
[58] = tested on: UACC-257 melanoma
[59] = tested on: XF 498 CNS

Q: How did the TGI [1] turn out when `Cc1ccc(C2CC(c3cccc([N+](=O)[O-])c3)=Nc3ccccc3S2)cc1` (stereo not drawn) was run?
A: The TGI was > 89.3 µM.

Q: And the TGI [2]?
A: Its TGI is > 100 µM.

Q: And the TGI [3]?
A: The TGI was > 100 µM.

Q: And the TGI [4]?
A: Its TGI is > 100 µM.

Q: And the TGI [5]?
A: Its TGI is > 100 µM.

Q: And the TGI [6]?
A: Its TGI is > 79.5 µM.

Q: And the TGI [7]?
A: Its TGI is > 31.6 µM.

Q: And the TGI [8]?
A: The TGI was > 100 µM.

Q: And the TGI [9]?
A: Its TGI is > 100 µM.

Q: And the TGI [10]?
A: Its TGI is 52.2 µM.

Q: And the TGI [11]?
A: The TGI was > 76.4 µM.

Q: And the TGI [12]?
A: Its TGI is > 100 µM.

Q: What about the TGI [13] of the same compound?
A: The TGI was > 100 µM.

Q: What about the TGI [14] of the same compound?
A: Its TGI is > 100 µM.

Q: What about the TGI [15] of the same compound?
A: Its TGI is > 100 µM.

Q: And the TGI [16]?
A: The TGI was 98.1 µM.

Q: What about the TGI [17] of the same compound?
A: The TGI was > 100 µM.

Q: And the TGI [18]?
A: The TGI was 51.9 µM.

Q: What about the TGI [19] of the same compound?
A: Its TGI is > 100 µM.

Q: And the TGI [20]?
A: Its TGI is > 100 µM.

Q: And the TGI [21]?
A: Its TGI is 77.2 µM.

Q: And the TGI [22]?
A: Its TGI is > 81.8 µM.

Q: And the TGI [23]?
A: Its TGI is > 96.1 µM.

Q: And the TGI [24]?
A: The TGI was 46.2 µM.

Q: And the TGI [25]?
A: Its TGI is > 100 µM.

Q: What about the TGI [26] of the same compound?
A: Its TGI is 47.5 µM.

Q: And the TGI [27]?
A: Its TGI is > 100 µM.

Q: And the TGI [28]?
A: The TGI was > 100 µM.

Q: And the TGI [29]?
A: Its TGI is > 100 µM.

Q: What about the TGI [30] of the same compound?
A: The TGI was 27.1 µM.

Q: And the TGI [31]?
A: Its TGI is > 100 µM.

Q: What about the TGI [32] of the same compound?
A: The TGI was > 83.6 µM.

Q: What about the TGI [33] of the same compound?
A: The TGI was > 100 µM.

Q: And the TGI [34]?
A: Its TGI is > 90.4 µM.

Q: And the TGI [35]?
A: Its TGI is 99.1 µM.

Q: What about the TGI [36] of the same compound?
A: The TGI was > 100 µM.

Q: What about the TGI [37] of the same compound?
A: The TGI was > 100 µM.

Q: And the TGI [38]?
A: Its TGI is 41.7 µM.

Q: And the TGI [39]?
A: The TGI was 64.6 µM.

Q: What about the TGI [40] of the same compound?
A: The TGI was > 100 µM.

Q: And the TGI [41]?
A: Its TGI is > 100 µM.

Q: And the TGI [42]?
A: The TGI was 51.9 µM.

Q: What about the TGI [43] of the same compound?
A: The TGI was > 100 µM.

Q: And the TGI [44]?
A: The TGI was > 71.4 µM.

Q: What about the TGI [45] of the same compound?
A: The TGI was 57.2 µM.

Q: And the TGI [46]?
A: Its TGI is > 65 µM.

Q: And the TGI [47]?
A: The TGI was > 100 µM.

Q: And the TGI [48]?
A: Its TGI is > 96.3 µM.

Q: And the TGI [49]?
A: Its TGI is > 100 µM.

Q: What about the TGI [50] of the same compound?
A: Its TGI is > 81.8 µM.

Q: And the TGI [51]?
A: Its TGI is > 100 µM.

Q: What about the TGI [52] of the same compound?
A: Its TGI is 46.1 µM.

Q: What about the TGI [53] of the same compound?
A: Its TGI is > 100 µM.

Q: And the TGI [54]?
A: Its TGI is > 100 µM.

Q: And the TGI [55]?
A: Its TGI is > 100 µM.

Q: And the TGI [56]?
A: The TGI was > 74.7 µM.

Q: What about the TGI [57] of the same compound?
A: Its TGI is > 72.2 µM.

Q: What about the TGI [58] of the same compound?
A: Its TGI is > 100 µM.

Q: And the TGI [59]?
A: The TGI was > 100 µM.

Q: How did the TGI [1] turn out when `Cc1ccccc1NC(=O)/C(=N/NC(=O)CC#N)C1C(=O)N(c2ccccc2)N=C1N` (stereo not drawn) was run?
A: The TGI was > 100 µM.

Q: What about the TGI [2] of the same compound?
A: Its TGI is > 100 µM.

Q: What about the TGI [3] of the same compound?
A: Its TGI is > 100 µM.

Q: What about the TGI [4] of the same compound?
A: The TGI was > 100 µM.

Q: And the TGI [5]?
A: The TGI was > 100 µM.

Q: And the TGI [6]?
A: Its TGI is > 100 µM.

Q: What about the TGI [7] of the same compound?
A: Its TGI is > 100 µM.

Q: And the TGI [8]?
A: The TGI was > 100 µM.

Q: What about the TGI [9] of the same compound?
A: The TGI was > 100 µM.

Q: What about the TGI [10] of the same compound?
A: The TGI was > 100 µM.

Q: And the TGI [11]?
A: The TGI was > 100 µM.

Q: And the TGI [12]?
A: The TGI was > 100 µM.

Q: And the TGI [13]?
A: Its TGI is > 100 µM.

Q: And the TGI [14]?
A: The TGI was > 100 µM.

Q: And the TGI [15]?
A: The TGI was > 100 µM.

Q: And the TGI [16]?
A: Its TGI is > 100 µM.

Q: And the TGI [17]?
A: The TGI was > 100 µM.

Q: What about the TGI [18] of the same compound?
A: Its TGI is > 100 µM.

Q: And the TGI [19]?
A: The TGI was > 100 µM.

Q: And the TGI [20]?
A: The TGI was > 100 µM.

Q: What about the TGI [21] of the same compound?
A: Its TGI is > 100 µM.

Q: What about the TGI [22] of the same compound?
A: The TGI was > 100 µM.

Q: And the TGI [23]?
A: Its TGI is > 100 µM.

Q: What about the TGI [24] of the same compound?
A: Its TGI is > 100 µM.

Q: And the TGI [25]?
A: Its TGI is > 100 µM.

Q: And the TGI [26]?
A: Its TGI is > 100 µM.

Q: And the TGI [27]?
A: Its TGI is > 100 µM.

Q: What about the TGI [28] of the same compound?
A: The TGI was > 100 µM.

Q: What about the TGI [29] of the same compound?
A: Its TGI is > 100 µM.

Q: What about the TGI [30] of the same compound?
A: The TGI was > 100 µM.

Q: And the TGI [31]?
A: Its TGI is > 100 µM.

Q: And the TGI [32]?
A: Its TGI is > 100 µM.

Q: And the TGI [33]?
A: The TGI was > 100 µM.

Q: And the TGI [34]?
A: Its TGI is > 100 µM.

Q: And the TGI [35]?
A: Its TGI is > 100 µM.

Q: What about the TGI [36] of the same compound?
A: The TGI was > 100 µM.

Q: What about the TGI [37] of the same compound?
A: The TGI was > 100 µM.

Q: What about the TGI [38] of the same compound?
A: The TGI was > 100 µM.

Q: And the TGI [39]?
A: The TGI was > 100 µM.

Q: And the TGI [40]?
A: Its TGI is > 100 µM.

Q: And the TGI [41]?
A: Its TGI is > 100 µM.

Q: What about the TGI [42] of the same compound?
A: The TGI was > 100 µM.

Q: And the TGI [43]?
A: The TGI was > 100 µM.

Q: What about the TGI [44] of the same compound?
A: The TGI was > 100 µM.

Q: And the TGI [45]?
A: Its TGI is > 100 µM.

Q: What about the TGI [46] of the same compound?
A: Its TGI is > 100 µM.

Q: What about the TGI [47] of the same compound?
A: The TGI was > 100 µM.

Q: What about the TGI [48] of the same compound?
A: The TGI was > 100 µM.

Q: And the TGI [49]?
A: Its TGI is > 100 µM.

Q: And the TGI [50]?
A: The TGI was 88.9 µM.

Q: And the TGI [51]?
A: The TGI was > 100 µM.

Q: What about the TGI [52] of the same compound?
A: Its TGI is > 100 µM.

Q: What about the TGI [53] of the same compound?
A: Its TGI is > 100 µM.

Q: What about the TGI [54] of the same compound?
A: Its TGI is > 100 µM.

Q: What about the TGI [55] of the same compound?
A: The TGI was > 100 µM.

Q: And the TGI [56]?
A: Its TGI is > 100 µM.

Q: What about the TGI [57] of the same compound?
A: Its TGI is > 100 µM.

Q: And the TGI [58]?
A: Its TGI is > 100 µM.

Q: And the TGI [59]?
A: The TGI was > 100 µM.
